Experimental findings from ChEMBL document CHEMBL6134821, “Design, synthesis, and biological evaluation of novel BTK-targeting proteolysis targeting chimeras (PROTACs) with enhanced pharmacokinetic properties” (Eur J Med Chem, 2025) are described below.

The structures appear in SMILES notation. The source made the active and inactive calls.

Series [1] addresses T1, Protein cereblon/Tyrosine-protein kinase BTK (Homo sapiens, UniProt Q06187+Q96SW2). Briefly: PROTAC activity at CRBN/BTK in human JeKo-1 cells assessed as BTK degradation at 10 nM incubated for 24 hrs by Western blot analysis relative to control. Type of series: cell-based. In general terms: A western blot detects proteins with antibodies after separation by electrophoresis.
Target sequence in this assay (Q06187 2-659 limits assumed): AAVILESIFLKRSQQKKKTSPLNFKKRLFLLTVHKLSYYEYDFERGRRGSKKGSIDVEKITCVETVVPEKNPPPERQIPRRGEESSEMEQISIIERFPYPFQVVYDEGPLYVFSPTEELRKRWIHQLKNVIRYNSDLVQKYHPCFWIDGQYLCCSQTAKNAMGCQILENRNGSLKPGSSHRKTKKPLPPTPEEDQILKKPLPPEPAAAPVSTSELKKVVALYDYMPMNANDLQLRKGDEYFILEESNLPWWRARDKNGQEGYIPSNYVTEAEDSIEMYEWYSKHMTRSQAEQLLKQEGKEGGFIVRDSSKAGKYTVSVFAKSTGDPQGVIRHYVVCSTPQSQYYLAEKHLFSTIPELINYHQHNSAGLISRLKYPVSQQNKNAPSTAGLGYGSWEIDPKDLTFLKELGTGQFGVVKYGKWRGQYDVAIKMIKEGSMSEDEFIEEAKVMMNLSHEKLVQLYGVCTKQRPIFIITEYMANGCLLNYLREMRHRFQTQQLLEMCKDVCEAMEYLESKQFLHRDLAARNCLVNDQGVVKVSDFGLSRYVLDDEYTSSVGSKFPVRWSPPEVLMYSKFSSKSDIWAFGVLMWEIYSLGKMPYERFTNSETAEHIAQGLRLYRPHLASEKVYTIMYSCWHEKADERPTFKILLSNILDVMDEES
Target sequence in this assay (Q96SW2 whole entry partner): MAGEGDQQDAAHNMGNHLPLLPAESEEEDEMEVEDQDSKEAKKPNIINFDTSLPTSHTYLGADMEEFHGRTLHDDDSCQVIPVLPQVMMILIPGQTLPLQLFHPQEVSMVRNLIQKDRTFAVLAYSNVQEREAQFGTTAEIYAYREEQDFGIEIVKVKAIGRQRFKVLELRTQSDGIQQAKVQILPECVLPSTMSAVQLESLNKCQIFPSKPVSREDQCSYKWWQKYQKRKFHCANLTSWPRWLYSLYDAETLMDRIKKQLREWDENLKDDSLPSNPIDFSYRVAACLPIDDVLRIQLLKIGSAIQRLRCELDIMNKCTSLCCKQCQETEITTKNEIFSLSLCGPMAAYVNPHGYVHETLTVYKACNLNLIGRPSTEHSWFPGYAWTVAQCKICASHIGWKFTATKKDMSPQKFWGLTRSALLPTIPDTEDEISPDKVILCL

In series [2] the target is T1, Protein cereblon/Tyrosine-protein kinase BTK. As to the kind of experiment: PROTAC activity at CRBN/BTK in human JeKo-1 cells assessed as BTK degradation at 100 nM incubated for 24 hrs by Western blot analysis relative to control. Type of series: cell-based.
Target sequence in this assay (Q06187 2-659 limits assumed): as the sequence (Q06187 2-659 limits assumed) above
Target sequence in this assay (Q96SW2 whole entry partner): as the sequence (Q96SW2 whole entry partner) above
The target is the same in series [3]. As to the kind of experiment: PROTAC activity at CRBN/BTK in human JeKo-1 cells assessed as BTK degradation at 30 nM incubated for 24 hrs by Western blot analysis relative to control. Type of series: cell-based.
Target sequence in this assay (Q06187 2-659 limits assumed): as the sequence (Q06187 2-659 limits assumed) above
Target sequence in this assay (Q96SW2 whole entry partner): as the sequence (Q96SW2 whole entry partner) above
For series [4] the target is unchanged. Briefly: PROTAC activity at CRBN/BTK in human JeKo-1 cells assessed as BTK degradation up to 100 nM incubated for 24 hrs by Western blot analysis. Type of series: cell-based.
Target sequence in this assay (Q06187 2-659 limits assumed): as the sequence (Q06187 2-659 limits assumed) above
Target sequence in this assay (Q96SW2 whole entry partner): as the sequence (Q96SW2 whole entry partner) above
Series [5] can be described thus: Cytotoxicity against human TMD8 cells harboring wild-type BTK assessed as inhibition of cell viability incubated for 5 days by CCK8 assay. To be noted: TMD8, 120 h. Type of series: functional, cell-based. (In general: Formazan colour is commonly taken as a measure of viable cells.)
Series [6] is described as follows: Cytotoxicity against human TMD8 cells harboring BTK C481S mutant assessed as inhibition of cell viability incubated for 5 days by CCK8 assay. Type of series: functional, cell-based. Particulars: TMD8, 120 h.
The nature of series [7]: Microsomal stability in human liver microsomes assessed as compound remaining measured up to 60 mins by LC-MS/MS analysis. Type of series: ADME, Microsome. To be noted: read-out: Stability. For orientation: Microsomes from liver hold many membrane-bound enzymes, among them those of drug oxidation.
Series [8] can be described thus: Microsomal stability in human liver microsomes assessed as intrinsic clearance in liver measured up to 60 mins in presence of NADPH by LC-MS/MS analysis. Type of series: ADME, Microsome. Particulars: read-out: CLH.
The target of series [9] is T1, Protein cereblon/Tyrosine-protein kinase BTK. Briefly: PROTAC activity at CRBN/BTK in human JeKo-1 cells assessed as BTK degradation incubated for 24 hrs by Western blot analysis. Type of series: cell-based.
Target sequence in this assay (Q06187 whole entry): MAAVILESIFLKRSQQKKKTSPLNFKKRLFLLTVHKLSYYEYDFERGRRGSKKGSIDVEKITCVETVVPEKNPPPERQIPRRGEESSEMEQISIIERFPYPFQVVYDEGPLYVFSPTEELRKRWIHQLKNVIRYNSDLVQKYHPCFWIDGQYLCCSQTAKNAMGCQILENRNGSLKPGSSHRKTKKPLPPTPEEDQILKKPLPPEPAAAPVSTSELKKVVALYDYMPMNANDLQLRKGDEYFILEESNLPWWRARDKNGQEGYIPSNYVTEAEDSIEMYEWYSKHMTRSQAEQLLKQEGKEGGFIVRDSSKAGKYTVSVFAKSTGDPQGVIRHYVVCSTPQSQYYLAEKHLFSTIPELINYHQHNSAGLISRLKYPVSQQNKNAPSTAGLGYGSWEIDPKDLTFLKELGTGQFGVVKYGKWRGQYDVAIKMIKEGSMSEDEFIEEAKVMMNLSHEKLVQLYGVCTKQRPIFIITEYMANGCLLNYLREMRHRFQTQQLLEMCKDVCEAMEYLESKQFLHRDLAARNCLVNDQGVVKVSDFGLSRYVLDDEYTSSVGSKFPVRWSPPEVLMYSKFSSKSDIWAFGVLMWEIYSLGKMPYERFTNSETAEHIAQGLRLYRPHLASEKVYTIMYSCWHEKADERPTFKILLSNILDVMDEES
Target sequence in this assay (Q96SW2 whole entry): as the sequence (Q96SW2 whole entry partner) above
Series [10] is described as follows: Microsomal stability in human liver microsomes assessed as half life measured up to 60 mins in presence of NADPH by LC-MS/MS analysis. Type of series: ADME, Microsome.
Series [11] in a line: Microsomal stability in human liver microsomes assessed as compound remaining measured up to 60 mins in presence of NADPH by LC-MS/MS analysis. Particulars: read-out: Stability. Type of series: ADME, Microsome.
Series [12] is described as follows: Microsomal stability in human liver microsomes assessed as intrinsic clearance in microsomes measured up to 60 mins in presence of NADPH by LC-MS/MS analysis. Type of series: ADME, Microsome. Particulars: read-out: CLH.

Regarding `O=C1CCC(n2ncc(N3CCC(CCN4CCC(CC(=O)N[C@H]5CC[C@@H](Nc6ncnc7[nH]cc(C(=O)c8ccc(Oc9ccccc9)cc8Cl)c67)CC5)CC4)CC3)c(Cl)c2=O)C(=O)N1` (stereo partly drawn), the Activity in series [1] turned out to be 64%; in series [2] it was 91%; in [3] it was 88%.
As for `O=C1CCC(c2ccc(N3CCC(CCN4CCC(CC(=O)N[C@H]5CC[C@@H](Nc6ncnc7[nH]cc(C(=O)c8ccc(Oc9ccccc9)cc8Cl)c67)CC5)CC4)CC3)cc2)C(=O)N1` (stereo partly drawn), the Activity in [1] was 79%; in series [2] it was 89%; in [3], 85%.
In the case of `O=C1CCC(N2Cc3cc(N4CCC(CCN5CCC(CC(=O)N[C@H]6CC[C@H](Nc7ncnc8[nH]cc(C(=O)c9ccc(Oc%10ccccc%10)cc9Cl)c78)CC6)CC5)CC4)c(F)cc3C2=O)C(=O)N1` (stereo partly drawn), the Activity is 80% in [1], 98% in [2] and 98% in series [3].
On to `O=C1CCC(c2ccc(N3CC4(CCN(CC(=O)N[C@H]5CC[C@@H](Nc6ncnc7[nH]cc(C(=O)c8ccc(Oc9ccccc9)cc8)c67)CC5)CC4)C3)cc2)C(=O)N1` (stereo partly drawn), for which the Activity in series [2] was determined as 23%; in series [3] it was 4%.
For `O=C1CCC(N2Cc3cc(N4CCC(CCN5CCC(CC(=O)N[C@H]6CC[C@H](Nc7ncnc8[nH]cc(C(=O)c9ccc(Oc%10ccccc%10)cc9Cl)c78)C6)CC5)CC4)c(F)cc3C2=O)C(=O)N1` (stereo partly drawn), the Activity in series [1] worked out at 88%; in series [2], 98%; in series [3], 94%.
With `O=C1CCC(c2ccc(N3CCC(CN4CCC(CC(=O)N[C@H]5CC[C@@H](Nc6ncnc7[nH]cc(C(=O)c8ccc(Oc9ccccc9)cc8)c67)CC5)CC4)C3)cc2)C(=O)N1` (stereo partly drawn), the values for the Activity in series [1], in series [2] and in series [3] were 4%, 6% and 11%, respectively.
For the compound `CN1C(=O)CCC(c2ccc(N3CCC(CCN4CCC(CC(=O)N[C@H]5CC[C@H](Nc6ncnc7[nH]cc(C(=O)c8ccc(Oc9ccccc9)cc8)c67)C5)CC4)CC3)cc2)C1=O` (stereo partly drawn), the outcome in series [4] was inactive.
With `Cc1ccc(C(=O)N2CCC(CCN3CCC(CC(=O)N[C@H]4CC[C@@H](Nc5ncnc6[nH]cc(C(=O)c7ccc(Oc8ccccc8)cc7Cl)c56)CC4)CC3)CC2)cc1N1CCC(=O)NC1=O`, the figures for the Activity in [1], in series [2] and in series [3] were 26%, 81% and 60%, respectively.
For the compound `O=C1CCC(N2Cc3cc(N4CCC(CCN5CCC(CC(=O)N[C@@H]6CCC[C@H](Nc7ncnc8[nH]cc(C(=O)c9ccc(Oc%10ccccc%10)cc9Cl)c78)C6)CC5)CC4)c(F)cc3C2=O)C(=O)N1` (stereo partly drawn), the Activity in series [1] was determined as 41%; in [2], 54%; in [3], 46%.
As to `O=C1CCC(N2Cc3cc(N4CCC(CCN5CCC(CC(=O)N6CCC(Nc7ncnc8[nH]cc(C(=O)c9ccc(Oc%10ccccc%10)cc9Cl)c78)CC6)CC5)CC4)c(F)cc3C2=O)C(=O)N1` (stereo not drawn), the Activity in series [1] is 80%; in series [2], 94%; in series [3], 90%.
Regarding `O=C1CCN(c2cccc(C(=O)N3CCC(CCN4CCC(CC(=O)N[C@H]5CC[C@@H](Nc6ncnc7[nH]cc(C(=O)c8ccc(Oc9ccccc9)cc8Cl)c67)CC5)CC4)CC3)c2)C(=O)N1`, the Activity in series [2] worked out at 24%.
On to `CN1C(=O)CCC(c2ccc(N3CCC(CCN4CCC(CC(=O)N[C@H]5CC[C@H](Nc6ncnc7[nH]cc(C(=O)c8ccc(Oc9ccccc9)cc8)c67)C5)CC4)CC3)nc2)C1=O` (stereo partly drawn), for which the result in [4] was inactive.
For the compound `O=C1CCC(N2Cc3cc(N4CCC(CCN5CCC(CC(=O)N6CCN(c7ncnc8[nH]cc(C(=O)c9ccc(Oc%10ccccc%10)cc9Cl)c78)CC6)CC5)CC4)c(F)cc3C2=O)C(=O)N1` (stereo not drawn), the Activity in series [1] is 65%; in [2], 47%; in [3] it was 53%.
As for `NC(=O)c1ncc(N2CCCCC2)nc1Nc1ccc(C2CCN(C[C@@H]3CCN(c4ccc5c(c4)C(=O)N(C4CCC(=O)NC4=O)C5=O)C3)CC2)cc1` (stereo partly drawn), the 50% inhibitory concentration (IC50) (as a rule, the concentration needed to halve the response being measured) in [5] came out at 8.8 nM; in series [6] it was 18 nM.
As to `O=C1CCC(N2Cc3cc(N4CCC(CCN5CCC(CC(=O)N[C@H]6CC[C@@H](Nc7ncnc8[nH]cc(C(=O)c9ccc(Oc%10ccccc%10)cc9Cl)c78)CC6)CC5)CC4)c(F)cc3C2=O)C(=O)N1` (stereo partly drawn), the Activity in [1] came to 83%; in series [2] it was 89%; in series [3] it was 92%. For the same compound, the IC50 was 23.9 nM in series [5] and 27.4 nM in series [6].
Regarding `O=C1CCC(c2ccc(N3CCC(CN4CCC(CC(=O)N[C@H]5CC[C@@H](Nc6ncnc7[nH]cc(C(=O)c8ccc(Oc9ccccc9)cc8)c67)CC5)CC4)CC3)cc2)C(=O)N1` (stereo partly drawn), the Activity in [1] was 50%; in series [2], 74%; in [3] it was 51%.
`O=C1CCC(c2cccc(N3CCC(CCN4CCC(CC(=O)N[C@H]5CC[C@@H](Nc6ncnc7[nH]cc(C(=O)c8ccc(Oc9ccccc9)cc8Cl)c67)CC5)CC4)CC3)c2)C(=O)N1` (stereo partly drawn): the Activity is 45% in series [1], 77% in [2] and 62% in series [3].
For `O=C1CCC(N2Cc3cc(N4CCC(CCN5CCC(CC(=O)N[C@H]6CC[C@@H](Nc7ncnc8[nH]cc(C(=O)c9ccccc9Cl)c78)CC6)CC5)CC4)c(F)cc3C2=O)C(=O)N1` (stereo partly drawn), the Activity was determined as 18% in series [1], 36% in series [2] and 32% in series [3].
Take `O=C1CCC(c2ccc(N3CCC(CCN4CCC(CCN[C@H]5CC[C@@H](Nc6ncnc7[nH]cc(C(=O)c8ccc(Oc9ccccc9)cc8)c67)CC5)CC4)CC3)cc2)C(=O)N1` (stereo partly drawn): the Activity was 39% in [2] and 15% in series [3].
Turning to `O=C1CCC(c2ccc(N3CCC(CN4CCC(CC(=O)N[C@H]5CC[C@H](Nc6ncnc7[nH]cc(C(=O)c8ccc(Oc9ccccc9)cc8)c67)C5)CC4)CC3)cc2)C(=O)N1` (stereo partly drawn), the Activity turned out to be 69% in series [1], 88% in [2] and 85% in series [3]. The remaining at 1 h turned out to be 96.8% in [7] and 55.6% in series [11]. The CLint scaled in [8] worked out at 14.2 mL/min/kg. The DC50 – broadly, the concentration giving 50% degradation – in [9] came to 3.6 nM. The half-life (as a rule, the time needed for the level to fall by half in the phase considered) in series [10] came out at 1.47 h. Besides, the microsomal CLint in series [12] was 15.8 µL/min/mg.
Consider `O=C1CCC(c2ccc(N3CCC(CN4CCC(CC(=O)N[C@H]5CC[C@H](Nc6ncnc7[nH]cc(C(=O)c8ccc(Oc9ccccc9)cc8)c67)C5)CC4)CC3)nc2)C(=O)N1` (stereo partly drawn), for which the Activity in [1] was 84%; in series [2] it was 93%; in [3] it was 91%. Further, the remaining at 1 h in series [7] worked out at 94.6%; in series [11], 53.9%. For the same compound, the CLint scaled in series [8] was determined as 18.2 mL/min/kg. Further, the DC50 in series [9] came out at 3.1 nM. Further, the half-life in series [10] was found to be 1.13 h. In addition, the microsomal CLint in [12] was 20.3 µL/min/mg.
Turning to `O=C1CCC(NC(=O)c2ccc(N3CCC(CCN4CCC(CC(=O)N[C@H]5CC[C@@H](Nc6ncnc7[nH]cc(C(=O)c8ccc(Oc9ccccc9)cc8Cl)c67)CC5)CC4)CC3)cn2)C(=O)N1` (stereo partly drawn), the figures for the Activity in series [1], in [2] and in series [3] were 4%, 73% and 54%, respectively.
Turning to `O=C1CCC(N2Cc3cc(N4CCC(CCN5CCC(CC(=O)N[C@H]6CC[C@@H](Nc7ncnc8[nH]cc(C(=O)c9ccc(Oc%10ccccc%10)cc9)c78)CC6)CC5)CC4)c(F)cc3C2=O)C(=O)N1` (stereo partly drawn), the Activity in series [1] came out at 87%; in series [2] it was 96%; in series [3], 95%.
The like results for `O=C1CCC(N2Cc3cc(N4CCC(CCN5CCC(CC(=O)NC6CCN(c7ncnc8[nH]cc(C(=O)c9ccc(Oc%10ccccc%10)cc9Cl)c78)CC6)CC5)CC4)c(F)cc3C2=O)C(=O)N1` (stereo not drawn) were, in that order, 56%, 88% and 76%.
As for `O=C1CCC(c2ccc(N3CCC(CCN4CCN(CC(=O)N[C@H]5CC[C@@H](Nc6ncnc7[nH]cc(C(=O)c8ccc(Oc9ccccc9)cc8)c67)CC5)CC4)CC3)cc2)C(=O)N1` (stereo partly drawn), the Activity in series [1] came to 15%; in series [2], 53%; in series [3], 36%.
Turning to `O=C1CCC(c2ccc(N3CCC(CCN4CCC(CC(=O)N[C@H]5CC[C@@H](Nc6ncnc7[nH]cc(C(=O)c8ccc(Oc9ccccc9)cc8)c67)CC5)CC4)CC3)cc2)C(=O)N1` (stereo partly drawn), the values for the Activity in [1], in series [2] and in series [3] were 69%, 69% and 79%, respectively.
As to `O=C1CCC(N2Cc3cc(N4CCC(CCN5CCC(CC(=O)N[C@H]6CC[C@@H](Nc7ncnc8[nH]cc(C(=O)c9ccc(F)cc9Cl)c78)CC6)CC5)CC4)c(F)cc3C2=O)C(=O)N1` (stereo partly drawn), the Activity is 11% in series [1], 23% in [2] and 7% in [3].
As for `O=C1CCN(c2ccc(C(=O)N3CCC(CCN4CCC(CC(=O)N[C@H]5CC[C@@H](Nc6ncnc7[nH]cc(C(=O)c8ccc(Oc9ccccc9)cc8Cl)c67)CC5)CC4)CC3)cc2)C(=O)N1`, the figures for the Activity in series [2] and in [3] were 35% and 9%, respectively.
For the compound `O=C1CCC(N2Cc3cc(N4CCC(CCN5CCC(CC(=O)N[C@@H]6CC[C@H](Nc7ncnc8[nH]cc(C(=O)c9ccc(Oc%10ccccc%10)cc9Cl)c78)C6)CC5)CC4)c(F)cc3C2=O)C(=O)N1` (stereo partly drawn), the Activity stood at 77% in [1], 88% in series [2] and 91% in series [3].
`O=C(c1ccc(Oc2ccccc2)cc1Cl)c1c[nH]c2ncnc(N[C@@H]3CC[C@@H](CO)OC3)c12` [NEMTABRUTINIB]: the IC50 in series [5] was 335 nM; in [6] it was 594 nM.
